Read-outs that look alike come from different tables or passages of the source.
Key:
phosphorylated PDK1 = phosphorylated PDK1 (Homo sapiens (Human), UniProt O15530); assay: PDK1 kinase assay (coupled PDK1/AKT/FAM-crosstide, IMAP); type: biochemical; conditions: 0.5 nM phosphorylated PDK1, 24 μM ATP; read-out: Inhibition of phospo-PDK1 in vitro IC50
dephosphorylated PDK1 = dephosphorylated PDK1 (Homo sapiens (Human), UniProt O15530); assay: as above; type: biochemical; conditions: 25 nM un-phosphorylated PDK1, 24 μM ATP; read-out: Inhibition of dephospo-PDK1 in vitro IC50
dephosphorylated PDK1, sequence (O15530 51-360): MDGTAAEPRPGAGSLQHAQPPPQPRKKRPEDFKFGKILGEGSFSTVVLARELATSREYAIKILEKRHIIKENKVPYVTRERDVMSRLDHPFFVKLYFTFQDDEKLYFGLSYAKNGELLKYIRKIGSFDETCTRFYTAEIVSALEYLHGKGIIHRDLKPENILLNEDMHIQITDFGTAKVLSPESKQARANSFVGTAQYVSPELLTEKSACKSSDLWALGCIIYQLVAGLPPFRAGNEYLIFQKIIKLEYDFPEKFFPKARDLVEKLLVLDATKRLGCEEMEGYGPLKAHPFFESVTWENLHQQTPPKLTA
Outline: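 The FAM-crosstide phosphorylation readout was IMAP polarization (ex 485/em 530 nm, 2 h binding), with 4-parameter fits of ΔmP data. The reaction ran 30 min at 25 °C with 24 μM ATP, and contained 25 nM phosphatase-treated PDK1 (aa 51–360) plus 30 nM unphosphorylated AKT2-PIFtide and 100 nM substrate. Buffer was 10 mM Tris pH 7.2, 10 mM MgCl2, 0.01% Triton X-100 and 1 mM DTT.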

phospho-akt (Thr308) = phospho-akt (Thr308) MSD ELISA in PC-3 cells; type: cell-based; conditions: Homo sapiens, PC-3 cells; for EC50: PC-3, 2 h, 2 hours, no serum; for inhibition at 1 µM / inhibition at 10 µM: read-out: Percent Inhibition of phospho-Akt (308) By MSD ELISA
Outline: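 Read-out is MSD electrochemiluminescence after lysate capture overnight at 4 degrees and 1 hr RT detection-antibody step. Before lysis, overnight-plated PC-3 cells received three-fold serial dilutions of inhibitor in serum-free medium, with DMSO-only high controls.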

Phospho-T308 Akt = Phospho-T308 Akt detection using immunoblot (western blot) in PC-3 cells; type: cell-based; conditions: for Reduction of Cellular Levels of Akt p308 By Western: 2 hour incubation, concentration not given in Table 2; for inhibition at 5 µM / inhibition at 2 µM: Homo sapiens, read-out: Percent Inhibition of phospho-Akt (308) By Western
Description: A Phospho-T308 Akt detection using immunoblot (western blot) analysis was performed as described below.
PC-3 prostate cells were plated in a 6 well plate in F12K media (Invitrogen, Carlsbad, Calif.) plus 10% FBS (Invitrogen) and placed in incubator overnight. The stock of compound A was a 50 mM solution in DMSO. 1000× dilutions of the compound were made in DMSO. The 1000× dilutions include, 35 mM, 25 mM, 15 mM, 10 mM, 7 mM, 5 mM, and 1 mM. 1 μl of the 1000× dilutions was added to 1 ml F12K media without serum for final concentrations of […]. 1 μl of DMSO was added to 1 ml media with no serum for a control. The 1 ml DMSO or compound plus media was then added to the cells. Following a 2 hour incubation at 37° C., cells were harvested and washed in PBS and subjected to centrifugation at 3,300 rpm for 5 minutes. Cells were lysed in 100 μl of Bio Rad Bioplex buffer containing protease inhibitors (BioRad, Hercules, Calif.) for 30 minutes on ice followed by centrifugation at 13,000 rpm for 5 minutes. The protein content of the supernatant was assayed using DC Protein Assay (BioRad). 25 μl of protein was added to 4× sample buffer (Invitrogen) and sample reducer (Invitrogen) and run on a 4-12% NuPage gel (Invitrogen). Proteins were then transferred to nitrocellulose (Invitrogen). The membrane was blocked in Tris-buffered saline (Sigma, St. Louis, Mo.) plus 0.1% Tween (Sigma) (T-TBS) plus 5% blotting grade milk (BioRad) for 60 minutes. Membranes were then incubated in T-TBS plus 5% BSA (Sigma) plus 1:1000 of anti-phospho akt (Thr 308) (Cell Signaling Technology, Beverly, Mass.) overnight at 4° C. Membranes were washed in T-TBS then incubated in 1:2000 of anti-rabbit-HRP (Cell Signaling) in TTBS plus 5% milk. Membranes were washed again and proteins were visualized with Super Signal West Pico (Pierce, Rockford, Ill.) and using Kodak BioMax MR film (Kodak, Rochester, N.Y.).
Phospho-akt 308 protein bands on the film were quantified using densitometry. An Alpha Imager (Alpha Innotech Corp, San Leandro, Calif.) using AlphaEase FC software version 4.1.0 (Alpha Innotech Corp.) was used to quantitate protein bands. Briefly, a rectangle of equal size was placed around each protein band as well as a background spot on the film. The densitometry values (IDV=Integrated Density Value) obtained for the background spot was then subtracted from the values obtained for the protein bands. These values were used to obtain an EC50 value using non-linear regression analysis in GraphPad Prism Version 4.00 (Graph Pad Prism, San Diego, Calif.). Percent decrease in expression of phosphoh-akt 308 were also measured specifically at 2 μM and 5 μM levels of inhibitor.

[1] = read-out: Inhibition of P308 Akt in cells using MSD EC50
[2] = read-out: Reduction of Cellular Levels of Akt p308 By MSD ELISA (EC50 μM)

phosphorylated PDK1, sequence (O15530 51-360): as above

| SMILES | IC50 (phosphorylated PDK1) [nM] | IC50 (dephosphorylated PDK1) [nM] | EC50 (phospho-akt (Thr308); [1]) [µM] | inhibition at 1 µM (phospho-akt (Thr308)) [%] | inhibition at 10 µM (phospho-akt (Thr308)) [%] | Reduction of Cellular Levels of Akt p308 By Western (Phospho-T308 Akt) | inhibition at 5 µM (Phospho-T308 Akt) [%] | EC50 (phospho-akt (Thr308); [2]) [µM] | inhibition at 2 µM (Phospho-T308 Akt) [%] |
| --- | --- | --- | --- | --- | --- | --- | --- | --- | --- |
| O=C(NCc1noc(-c2c[nH]c3ncccc23)n1)c1cccn(Cc2ccc(Cl)cc2)c1=O [Cpd 305] | < 500 | < 500 | 1 to 5 | < 25 | > 75 | bbb (inhibition of more than 75%) | > 75 | – | – |
| C[C@@H](c1ccc(Cl)cc1)n1cccc(C(=O)NCc2noc(-c3c[nH]c4ncccc34)n2)c1=O [Cpd 300] | < 500 | < 500 | 1 to 5 | 25 to 75 | > 75 | bbb (inhibition of more than 75%) | > 75 | – | – |
| O=C(NCc1cccc(-c2cn[nH]c2)c1)c1cccn(Cc2ccc(F)c(F)c2)c1=O [Cpd 222] | 500 to 10000 | < 500 | – | – | – | bb (inhibition of from 25% to 75%) | 25 to 75 | > 5 | – |
| O=C(NC1CCCc2ccc(-c3c[nH]c4ncccc34)cc21)c1cccn(Cc2ccc(F)c(F)c2)c1=O (stereo not shown) [Cpd 16] | < 500 | < 500 | > 5 | – | – | bb (inhibition of from 25% to 75%) | – | > 5 | < 25 |
| O=C(NCc1cnc(-c2c[nH]c3ncccc23)s1)c1cccn(Cc2ccc(F)c(F)c2)c1=O [Cpd 134] | < 500 | < 500 | – | < 25 | > 75 | bbb (inhibition of more than 75%) | > 75 | – | – |
| O=C(NCc1noc(-c2c[nH]c3ncccc23)n1)c1cccn(Cc2cccc(F)c2)c1=O [Cpd 302] | < 500 | < 500 | – | < 25 | 25 to 75 | bbb (inhibition of more than 75%) | > 75 | – | – |
| O=C(NCc1noc(-c2c[nH]c3ncccc23)n1)c1cccn(Cc2ccc(F)cc2)c1=O [Cpd 303] | < 500 | < 500 | – | < 25 | < 25 | bbb (inhibition of more than 75%) | > 75 | – | – |
| O=C(O)C[C@@H](NC(=O)c1cccn(Cc2ccc(F)c(F)c2)c1=O)c1nnc(-c2c[nH]c3ncccc23)o1 [Cpd 287] | < 500 | < 500 | – | < 25 | < 25 | bb (inhibition of from 25% to 75%) | 25 to 75 | – | – |
| O=C(O)CC[C@@H](NC(=O)c1cccn(Cc2ccc(F)c(F)c2)c1=O)c1nc(-c2c[nH]c3ncccc23)co1 [Cpd 307] | < 500 | < 500 | – | < 25 | < 25 | b (inhibition of less 25%) | < 25 | – | – |
| O=C(C[C@@H](NC(=O)c1cccn(Cc2ccc(F)c(F)c2)c1=O)c1nnc(-c2c[nH]c3ncccc23)o1)NCCN1CCCC1 [Cpd 298] | < 500 | < 500 | – | < 25 | < 25 | b (inhibition of less 25%) | < 25 | – | – |
| COC(=O)[C@H](COc1ccc2[nH]c(=O)[nH]c2c1)NC(=O)c1cccn(Cc2ccc(F)c(F)c2)c1=O [Cpd 135] | < 500 | < 500 | 1 to 5 | – | – | bbb (inhibition of more than 75%) | > 75 | 1 to 5 | – |
| CC(C)(C)OC(=O)C[C@@H](NC(=O)c1cccn(Cc2ccc(F)c(F)c2)c1=O)c1nnc(-c2c[nH]c3ncccc23)o1 [Cpd 286] | < 500 | < 500 | < 1 | 25 to 75 | > 75 | bbb (inhibition of more than 75%) | > 75 | – | – |
| COC(=O)[C@@H](COc1ccc2[nH]c(=O)[nH]c2c1)NC(=O)c1cccn(Cc2ccc(F)c(F)c2)c1=O [Cpd 293] | < 500 | < 500 | – | 25 to 75 | > 75 | bb (inhibition of from 25% to 75%) | 25 to 75 | – | – |
| O=C(NCc1ccc(-c2c[nH]c3nccnc23)s1)c1cccn(Cc2ccc(F)c(F)c2)c1=O [Cpd 14] | < 500 | < 500 | – | 25 to 75 | 25 to 75 | bb (inhibition of from 25% to 75%) | – | – | 25 to 75 |
| CC(C)(C)OC(=O)NC[C@@H](NC(=O)c1cccn(Cc2ccc(F)c(F)c2)c1=O)c1nc(-c2c[nH]c3ncccc23)cs1 [Cpd 295] | < 500 | < 500 | 1 to 5 | < 25 | > 75 | bb (inhibition of from 25% to 75%) | 25 to 75 | – | – |
| O=C(NCc1noc(-c2c[nH]c3ncccc23)n1)c1cc(Cl)cn(Cc2ccc(Cl)cc2)c1=O [Cpd 309] | < 500 | < 500 | 1 to 5 | 25 to 75 | > 75 | bb (inhibition of from 25% to 75%) | 25 to 75 | – | – |
